This experiment concerns the target T1, HIV-1 protease (Human immunodeficiency virus type 1 group M subtype B, UniProt P04585).
T1 construct: Purified HIV-1 protease was obtained as described above; made in house; host or cells: E. coli K12 L507/pHP10D (NRRL B-18560)
Put plainly: biochemical. The class given is biochemical. How it is done: E. Fluorescence HIV-1 Protease Inhibitor Assay
The following buffers and solutions are used in the Fluorescence HIV-1 Protease Inhibitor Assay:
To each well of a round bottom, 96-well plate is added 20 μL of the Enzyme Solution followed by 10 μL of the compound to be evaluated in a 20% aqueous dimethylsulfoxide solution. Purified HIV-1 protease was obtained as described above. The resulting solution is incubated for one hour at room temperature and then 20 μL of a solution containing the substrate, prepared above, in MES-ALB buffer (1.5 μl/mL) is added to each well. The solutions are then incubated for 16 hours at room temperature and then each well is diluted with 150 μL of MES-ALB buffer.
To each well of a second round bottom, 96-well Pandex plate is added 25 μL of the Avidin Coated Beads Solution. Then, to each well is added 25 μL of the diluted incubation solutions, prepared above. The solutions are mixed thoroughly and the plates are loaded into a Pandex® machine, washed, evacuated and read. Sample detection was performed by excitation at 485 nm, reading the resulting epifluorescence at 535 nm.

In brackets after ≈: the same amount, converted by molar mass. Where two headings read alike, the source gives them in different places.

What is called IC50 is the concentration that inhibits the measured activity by half. Read a low IC50 as greater potency. Regarding `CC(C)(C)NC(=O)[C@@H]1CN(Cc2cccnc2)CCN1C[C@@H](O)[C@H](Cc1ccccc1)NC(=O)[C@@H](CS(=O)(=O)c1ccc(F)cc1)NS(C)(=O)=O` (relative stereo) [Example 46], half-maximal inhibition (IC50) required 1.23 nM.
In the case of `CC(=O)NC(CSCc1ccccc1)C(=O)NC(Cc1ccccc1)C(O)CN1CC2CCCCC2CC1C(=O)NC(C)(C)C` (stereo not drawn) [Example 33, [2R-(2R*,3R*,6R*,3'S*,4a'S*,8a'S*)]-N(t-Butyl)-2'-[2-hydroxy-3-phenylmethyl-4-aza-5-oxo-6-N(ethanoyl)amino-7-phenylmethylthio]heptyl decahydroisoquinoline-3'-carboxamide], the concentration for half-maximal inhibition (IC50) (pH 5.5) is 1.1 nM. This counts as single-digit nanomolar.
Turning to `CC(=O)N[C@H](CS(=O)(=O)c1ccc2ccccc2c1)C(=O)N[C@@H](Cc1ccccc1)[C@H](O)CN1C[C@H]2CCCC[C@H]2C[C@H]1C(=O)NC(C)(C)C` [Example 36, [2R-(2R*,3R*,6R*,3'S*,4a'S*,8a'S*)]-N(t-Butyl)-2'-[2-hydroxy-3-phenylmethyl-4-aza-5-oxo-6-N(ethanoyl)amino-7-naphth-2ylsulfonyl]heptyl decahydroisoquinoline-3'-carboxamide], the midpoint of inhibition, the IC50, lay at 0.426 nM.
`CC(C)(C)NC(=O)[C@@H]1C[C@@H]2CCCC[C@@H]2CN1C[C@@H](O)[C@H](Cc1ccccc1)NC(=O)[C@@H](CSc1ccc(F)cc1)NS(C)(=O)=O` [Example 37, [2R-(2R*,3R*,6R*,3'S*,4a'S*,8a'S*)]-N(t-Butyl)-2'-[2-hydroxy-3-phenylmethyl-4-aza-5-oxo-6-N(methylsulfonyl)amino-7-p-fluoro-phenylthio]heptyl decahydroisoquinoline-3'-carboxamide]: inhibition was half-maximal at 5.32 nM (IC50).
Still for that read-out and setting: the same measure for `CC(C)(C)NC(=O)[C@@H]1C[C@@H]2CCCC[C@@H]2CN1C[C@@H](O)[C@H](Cc1ccccc1)NC(=O)[C@@H](C[S+]([O-])c1ccc(F)cc1)NS(C)(=O)=O` (stereo partly drawn) [Example 38, [2R-(2R*,3R*,6R*,3'S*,4a'S*,8a'S*)]-N(t-Butyl)-2'-[2-hydroxy-3-phenylmethyl-4-aza-5-oxo-6-N(methylsulfonyl)amino-7-p-fluoro-phenylsulfinyl]heptyl decahydroisoquinoline-3'-carboxamide]: 0.722 nM; for `CC(C)(C)NC(=O)[C@@H]1C[C@@H]2CCCC[C@@H]2CN1C[C@@H](O)[C@H](Cc1ccccc1)NC(=O)[C@@H](CS(=O)(=O)c1ccc(F)cc1)NS(C)(=O)=O` [Example 39, [2R-(2R*,3R*,6R*,3'S*,4a'S*,8a'S*)]-N(t-Butyl)-2'-[2-hydroxy-3-phenylmethyl-4-aza-5-oxo-6-N(methylsulfonyl)amino-7-p-fluoro-phenylsulfonyl]heptyl decahydroisoquinoline-3'-carboxamide]: 0.846 nM; for `CC(C)(C)NC(=O)[C@@H]1C[C@@H]2CCCC[C@@H]2CN1C[C@@H](O)[C@H](Cc1ccccc1)NC(=O)[C@@H](CS(=O)(=O)c1ccc(F)cc1)NS(C)(=O)=O` [Example 40, [2R-(2R*,3R*,6R*,3'S*,4a'S*,8a'S*)]-N(t-Butyl)-2'-[2-hydroxy-3-phenylmethyl-4-aza-5-oxo-6-N(methylsulfonyl)amino-7-p-fluoro-phenylsulfonyl]heptyl decahydroisoquinoline-3'-carboxamide]: 0.635 nM.
The same measure, in the same setting: for `CC(C)(C)NC(=O)[C@@H]1C[C@@H]2CCCC[C@@H]2CN1C[C@@H](O)[C@H](Cc1ccccc1)NC(=O)[C@@H](CSc1ccc2ccccc2c1)NS(C)(=O)=O` [Example 41, [2R-(2R*,3R*,6R*,3'S*,4a'S*,8a'S*)]-N(t-Butyl)-2'-[2-hydroxy-3-phenylmethyl-4-aza-5-oxo-6-N(methylsulfonyl)amino-7-naphth-2-ylthio]heptyl decahydroisoquinoline-3'-carboxamide] the value was 7.76 nM.
The same measure, in the same setting: the same measure for `CC(C)(C)NC(=O)[C@@H]1C[C@@H]2CCCC[C@@H]2CN1C[C@@H](O)[C@H](Cc1ccccc1)NC(=O)[C@@H](C[S+]([O-])c1ccc2ccccc2c1)NS(C)(=O)=O` (stereo partly drawn) [Example 42, [2R-(2R*,3R*,6R*,3'S*,4a'S*,8a'S*)]-N(t-Butyl)-2'-[2-hydroxy-3-phenylmethyl-4-aza-5-oxo-6-N(methylsulfonyl)amino-7-naphth-2-ylsulfinyl]heptyl decahydroisoquinoline-3'-carboxamide]: 0.621 nM.
The compound `CC(C)(C)NC(=O)[C@@H]1C[C@@H]2CCCC[C@@H]2CN1C[C@@H](O)[C@H](Cc1ccccc1)NC(=O)[C@@H](CS(=O)(=O)c1ccc2ccccc2c1)NS(C)(=O)=O` [Example 44, [2R-(2R*,3R*,6R*,3'S*,4a'S*,8a'S*)]-N(t-Butyl)-2'-[2-hydroxy-3-phenylmethyl-4-aza-5-oxo-6-N(methylsulfonyl)amino-7-naphth-2-ylsulfonyl]heptyl decahydroisoquinoline-3'-carboxamide] showed an IC50 of 0.202 nM.
On the same count and under the same terms, the same measure for `CC(C)(C)NC(=O)[C@@H]1C[C@@H]2CCCC[C@@H]2CN1C[C@@H](O)[C@H](CSc1ccccc1)NC(=O)[C@@H](CS(=O)(=O)c1ccc(F)cc1)NS(C)(=O)=O` [Example 47]: 10.9 nM.
Consider `CC(C)(C)NC(=O)[C@@H]1C[C@@H]2CCCC[C@@H]2CN1C[C@@H](O)[C@H](CSc1ccccc1)NC(=O)[C@@H](CS(=O)(=O)c1ccc2ccccc2c1)NS(C)(=O)=O` [Example 48], for which the IC65 (read-out: Fluorescence Assay IC65 (65% inhibition at 0.16 ng/mL)) amounted to 0.16 ng/mL (≈ 0.207 nM).
`CC(=O)N[C@H](CSCc1ccccc1)C(=O)N[C@@H](Cc1ccccc1)[C@H](O)CN1C[C@H]2CCCC[C@H]2C[C@H]1C(=O)NC(C)(C)C` [Example 49, [2R-(2R*,3R*,6R*,3'S*,4a'S*,8a'S*)]-N(t-Butyl)-2'-[2-hydroxy-3-phenylmethyl-4-aza-5-oxo-6-N(ethanoyl)amino-7-phenylmethylthio]heptyl decahydroisoquinoline-3'-carboxamide] showed an IC50 of 1.1 nM. This lies in the single-digit nanomolar range.

These data come from US5905077A, “Inhibitors of HIV protease useful for the treatment of AIDS” (Eli Lilly and Company, priority 1997, dated 1999).
